Earlier results as cited in US20160128340A1, “Pest control formulation composed of Beauveria bassiana, Cold Pressed Neem Oil and Refined Pyrethrum Extract, and methods of making and using same” (priority 2014, published 2016).

Tested on: Bemisia tabaci
Settings: Bemisia tabaci population collected in a floriculture greenhouse
In the case of `Cc1c(COC(=O)[C@@H]2[C@H](/C=C(\Cl)C(F)(F)F)C2(C)C)cccc1-c1ccccc1` (racemic) [bifenthrin], the “resistance factor at LC50” value is listed as 23 fold.
For `CC1(C)C(C=C(Cl)Cl)C1C(=O)OC(C#N)c1cccc(Oc2ccccc2)c1` (stereo not drawn) [α-cypermethrin], the “resistance factor at LC50” value is listed as 80 fold.
In the case of `O=[N+]([O-])NC1=NCCN1Cc1ccc(Cl)nc1` [imidacloprid], the “resistance factor at LC50” value is listed as 730 fold.
For `CCN(CC)c1nc(C)cc(OP(=S)(OC)OC)n1` [pirimiphos-methyl], the “resistance factor at LC50” value is given as 18 fold.
